# Measured values as given in US11447466B2, “Substituted indole compounds useful as inhibitors of TLR7/8/9” (BRISTOL-MYERS SQUIBB COMPANY, priority 2017, dated 2022).
# Experiments:
# Assay type in all cases: cell-based
# human TLR7 = molecular target: T1, human TLR7 (Homo sapiens, UniProt Q9NYK1); test: TLR7 inhibition reporter assay (HEK-Blue SEAP reporter, gardiquimod stimulation); conditions: HEK-Blue cells overexpressing human TLR7, SEAP reporter, gardiquimod 7.5 μM, 22 hour incubation
# T1 construct: host or cells: HEK-Blue cells
# T1 sequence (Q9NYK1 27-1049): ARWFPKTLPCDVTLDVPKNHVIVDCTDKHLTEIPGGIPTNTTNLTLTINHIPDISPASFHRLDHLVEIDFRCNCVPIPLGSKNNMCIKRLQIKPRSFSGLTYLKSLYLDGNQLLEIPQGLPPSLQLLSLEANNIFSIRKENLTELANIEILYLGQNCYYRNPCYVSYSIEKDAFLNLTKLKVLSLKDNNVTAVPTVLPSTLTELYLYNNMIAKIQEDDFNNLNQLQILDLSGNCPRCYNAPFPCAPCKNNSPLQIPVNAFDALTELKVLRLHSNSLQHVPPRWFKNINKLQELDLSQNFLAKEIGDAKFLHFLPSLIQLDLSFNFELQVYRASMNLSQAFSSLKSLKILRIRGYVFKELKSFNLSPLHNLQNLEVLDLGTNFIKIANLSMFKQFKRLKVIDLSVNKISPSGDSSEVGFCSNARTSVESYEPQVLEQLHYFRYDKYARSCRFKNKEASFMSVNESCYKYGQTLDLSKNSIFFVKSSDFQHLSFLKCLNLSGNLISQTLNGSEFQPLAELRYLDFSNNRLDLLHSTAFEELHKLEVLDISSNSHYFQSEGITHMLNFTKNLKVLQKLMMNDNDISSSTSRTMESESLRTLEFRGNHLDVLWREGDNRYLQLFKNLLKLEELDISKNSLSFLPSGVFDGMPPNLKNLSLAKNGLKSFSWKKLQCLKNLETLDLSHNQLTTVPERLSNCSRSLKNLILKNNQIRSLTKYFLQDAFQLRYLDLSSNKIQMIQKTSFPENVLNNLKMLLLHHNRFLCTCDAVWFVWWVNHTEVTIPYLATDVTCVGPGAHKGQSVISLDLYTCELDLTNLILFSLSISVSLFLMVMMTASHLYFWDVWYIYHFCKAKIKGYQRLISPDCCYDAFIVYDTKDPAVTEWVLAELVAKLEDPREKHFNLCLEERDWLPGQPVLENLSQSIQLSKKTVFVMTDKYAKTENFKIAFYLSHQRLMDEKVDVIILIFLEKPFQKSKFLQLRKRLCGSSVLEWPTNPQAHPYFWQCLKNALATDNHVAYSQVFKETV
# Protocol: (§1) TLR7/8/9 Inhibition Reporter Assays
# (§2) HEK-Blue™-cells (Invivogen) overexpressing human TLR7, TLR8 or TLR9 receptors were used for screening inhibitors of these receptors using an inducible SEAP (secreted embryonic alkaline phosphatase) reporter gene under the control of the IFN-β minimal promoter fused to five NF-κB and AP-1-binding sites. Briefly, cells are seeded into Greiner 384 well plates (15000 cells per well for TLR7, 20,000 for TLR8 and 25,000 for TLR9) and then treated with test compounds in DMSO to yield a final dose response concentration range of 0.05 nM-50 μM. After a 30 minute compound pre-treatment at room temperature, the cells are then stimulated with a TLR7 ligand (gardiquimod at a final concentration of 7.5 μM), TLR8 ligand (R848 at a final concentration of 15.9 μM) or TLR9 ligand (ODN2006 at a final concentration of 5 nM) to activate NF-κB and AP-1 which induce the production of SEAP. After a 22 hour incubation at 37° C., 5% CO2, SEAP levels are determined with the addition of HEK-Blue™ Detection reagent (Invivogen), a cell culture medium that allows for detection of SEAP, according to manufacturer's specifications. The percent inhibition is determined as the % reduction in the HEK-Blue signal present in wells treated with agonist plus DMSO alone compared to wells treated with a known inhibitor.
# human TLR8 = molecular target: T2, human TLR8 (Homo sapiens, UniProt Q9NR97); test: TLR8 inhibition reporter assay (HEK-Blue SEAP reporter, R848 stimulation); conditions: HEK-Blue cells overexpressing human TLR8, SEAP reporter, R848 15.9 μM, 22 hour incubation
# T2 construct: host or cells: HEK-Blue cells
# T2 sequence (Q9NR97 27-1041): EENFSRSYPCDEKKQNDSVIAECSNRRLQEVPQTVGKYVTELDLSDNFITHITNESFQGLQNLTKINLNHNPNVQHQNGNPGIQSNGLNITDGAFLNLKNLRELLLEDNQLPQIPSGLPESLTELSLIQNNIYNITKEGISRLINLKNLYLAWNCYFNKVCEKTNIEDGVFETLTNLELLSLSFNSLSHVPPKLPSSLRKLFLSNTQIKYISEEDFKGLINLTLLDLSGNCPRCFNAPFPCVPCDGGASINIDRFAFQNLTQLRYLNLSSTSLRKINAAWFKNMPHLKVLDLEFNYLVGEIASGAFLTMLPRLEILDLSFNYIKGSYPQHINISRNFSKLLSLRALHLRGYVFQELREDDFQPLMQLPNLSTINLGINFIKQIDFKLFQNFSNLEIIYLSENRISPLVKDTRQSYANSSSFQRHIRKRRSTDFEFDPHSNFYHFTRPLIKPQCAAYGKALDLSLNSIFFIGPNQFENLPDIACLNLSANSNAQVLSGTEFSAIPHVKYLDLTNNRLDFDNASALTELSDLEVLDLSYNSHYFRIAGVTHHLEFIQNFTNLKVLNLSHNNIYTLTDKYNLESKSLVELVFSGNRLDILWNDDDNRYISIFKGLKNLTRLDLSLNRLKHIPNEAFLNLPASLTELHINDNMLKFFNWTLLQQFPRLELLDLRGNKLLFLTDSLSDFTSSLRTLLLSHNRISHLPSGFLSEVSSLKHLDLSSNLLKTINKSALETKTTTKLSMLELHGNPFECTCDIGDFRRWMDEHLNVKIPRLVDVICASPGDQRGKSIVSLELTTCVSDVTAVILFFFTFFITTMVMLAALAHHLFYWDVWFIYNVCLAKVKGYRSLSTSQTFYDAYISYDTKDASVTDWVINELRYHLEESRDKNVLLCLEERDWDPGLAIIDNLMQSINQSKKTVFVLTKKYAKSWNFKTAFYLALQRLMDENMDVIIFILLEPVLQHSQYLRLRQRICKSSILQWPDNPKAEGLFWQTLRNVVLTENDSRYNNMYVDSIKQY
# Protocol: as §1, §2
# human TLR9 = molecular target: T3, human TLR9 (Homo sapiens, UniProt Q9NR96); test: TLR9 inhibition reporter assay (HEK-Blue SEAP reporter, ODN2006 stimulation); conditions: HEK-Blue cells overexpressing human TLR9, SEAP reporter, ODN2006 5 nM, 22 hour incubation
# T3 construct: host or cells: HEK-Blue cells
# T3 sequence (Q9NR96 26-1032): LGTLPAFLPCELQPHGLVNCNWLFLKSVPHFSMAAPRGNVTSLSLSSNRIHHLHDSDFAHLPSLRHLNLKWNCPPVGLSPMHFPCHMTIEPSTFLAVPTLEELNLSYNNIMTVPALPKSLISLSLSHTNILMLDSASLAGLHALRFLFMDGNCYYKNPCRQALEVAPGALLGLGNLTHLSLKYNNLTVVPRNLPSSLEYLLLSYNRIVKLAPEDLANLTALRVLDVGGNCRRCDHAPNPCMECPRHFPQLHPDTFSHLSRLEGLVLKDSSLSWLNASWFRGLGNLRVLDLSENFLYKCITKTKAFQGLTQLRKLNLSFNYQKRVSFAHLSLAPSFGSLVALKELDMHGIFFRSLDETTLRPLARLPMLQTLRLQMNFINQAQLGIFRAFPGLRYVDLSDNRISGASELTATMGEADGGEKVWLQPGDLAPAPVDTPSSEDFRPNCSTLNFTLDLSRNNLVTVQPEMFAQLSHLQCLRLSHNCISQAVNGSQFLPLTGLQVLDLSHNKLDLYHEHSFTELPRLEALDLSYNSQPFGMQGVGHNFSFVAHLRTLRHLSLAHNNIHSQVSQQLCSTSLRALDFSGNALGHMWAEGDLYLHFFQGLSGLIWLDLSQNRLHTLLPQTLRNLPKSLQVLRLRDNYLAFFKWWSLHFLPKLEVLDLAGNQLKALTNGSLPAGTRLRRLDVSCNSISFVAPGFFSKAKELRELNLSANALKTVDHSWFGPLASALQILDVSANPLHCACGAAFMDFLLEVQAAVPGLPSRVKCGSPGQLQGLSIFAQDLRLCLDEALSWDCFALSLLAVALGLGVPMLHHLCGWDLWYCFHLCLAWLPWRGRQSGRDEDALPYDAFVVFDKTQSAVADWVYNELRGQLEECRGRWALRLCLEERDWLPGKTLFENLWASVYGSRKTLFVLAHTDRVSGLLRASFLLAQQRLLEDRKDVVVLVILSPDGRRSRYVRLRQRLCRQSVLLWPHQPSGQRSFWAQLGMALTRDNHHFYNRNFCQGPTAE
# Protocol: as §1, §2
SMILES,IC50 (human TLR7) [nM],IC50 (human TLR8) [nM],IC50 (human TLR9) [nM]
"CC(C)c1c(-c2cc(-c3cccnc3)c(=O)n(C)c2)[nH]c2ccc(C3CCN(C)CC3)cc12 [Example 247, 5-(3-isopropyl-5-(1-methylpiperidin-4-yl)-1H-indol-2-yl)-1-methyl-[3,3′-bipyridin]-2(1H)-one]",3,4.1,864
"CCn1nc(-c2[nH]c3ccc(C4CCNCC4)cc3c2C(C)C)cc(C)c1=O [Example 18, 2-ethyl-6-(3-isopropyl-5-(piperidin-4-yl)-1H-indol-2-yl)-4-methylpyridazin-3(2H)-one]",18.3,14.7,6650
"Cc1cc(-c2[nH]c3ccc(C4CCN(CC(=O)N(C)C)CC4)cc3c2C(C)C)cn(CC(C)C)c1=O [Example 163, 2-(4-(2-(1-isobutyl-5-methyl-6-oxo-1,6-dihydropyridin-3-yl)-3-isopropyl-1H-indol-5-yl)piperidin-1-yl)-N,N-dimethylacetamide]",12.3,118,3890
"CCn1cc(-c2[nH]c3ccc(C4CCN(C(=O)CN(C)C)CC4)cc3c2C(C)C)cc(C)c1=O [Example 282, 5-(5-(1-(dimethylglycyl)piperidin-4-yl)-3-isopropyl-1H-indol-2-yl)-1-ethyl-3-methylpyridin-2(1H)-one]",5.2,7,6270
"Cc1c(-c2[nH]c3ccc(C4CCN(CCC(C)(C)O)CC4)cc3c2C(C)C)cn(C)c(=O)c1C [Example 73, 5-(5-(1-(3-hydroxy-3-methylbutyl)piperidin-4-yl)-3-isopropyl-1H-indol-2-yl)-1,3,4-trimethylpyridin-2(1H)-one]",8,3.3,6070
"CC(C)c1c(-c2ccc(=O)n(C)c2)[nH]c2ccc(C3CCN(C4CCOC4)CC3)cc12 (centres unmarked) [Example 177, 5-(3-isopropyl-5-(1-(tetrahydrofuran-3-yl)piperidin-4-yl)-1H-indol-2-yl)-1-methylpyridin-2(1H)-one]",154,51.9,9210
"Cc1c(-c2[nH]c3ccc(C4CCNCC4)cc3c2C(C)C)cn(C)c(=O)c1-c1cccnc1 [Example 65, 5-(3-isopropyl-5-(piperidin-4-yl)-1H-indol-2-yl)-1,4-dimethyl-[3,3′-bipyridin]-2(1H)-one]",976,75.1,3100
"Cc1cc(-c2[nH]c3ccc(C4CCN(Cc5ccn(C)n5)CC4)cc3c2C(C)C)cn(C)c1=O [Example 195, 5-(3-isopropyl-5-(1-((1-methyl-1H-pyrazol-3-yl)methyl)piperidin-4-yl)-1H-indol-2-yl)-1,3-dimethylpyridin-2(1H)-one]",3.9,2.6,5190
"Cc1cc(-c2[nH]c3ccc(C4CCN(CC(=O)NC[C@@H](C)O)CC4)cc3c2C(C)C)cn(C)c1=O [Example 125, (R)-2-(4-(2-(1,5-dimethyl-6-oxo-1,6-dihydropyridin-3-yl)-3-isopropyl-1H-indol-5-yl)piperidin-1-yl)-N-(2-hydroxypropyl)acetamide]",–,289,≥ 50000
"Cc1cc(-c2[nH]c3ccc(C4CCN(CC(=O)NC[C@H](C)O)CC4)cc3c2C(C)C)cn(C)c1=O [Example 126, (S)-2-(4-(2-(1,5-dimethyl-6-oxo-1,6-dihydropyridin-3-yl)-3-isopropyl-1H-indol-5-yl)piperidin-1-yl)-N-(2-hydroxypropyl)acetamide]",–,631,≥ 50000
"CC(C)c1c(-c2cc(CCC3CC3)c(=O)n(C)c2)[nH]c2ccc(C3CCNCC3)cc12 [Example 62, 3-(2-cyclopropylethyl)-5-(3-isopropyl-5-(piperidin-4-yl)-1H-indol-2-yl)-1-methylpyridin-2(1H)-one]",–,–,≥ 50000
"CCCN1CCC(c2ccc3[nH]c(-c4cc(N5CCCCC5)c(=O)n(C)c4)c(C(C)C)c3c2)CC1 [Example 173, 5-(3-isopropyl-5-(1-propylpiperidin-4-yl)-1H-indol-2-yl)-1-methyl-3-(piperidin-1-yl) pyridin-2(1H)-one]",–,983,6610
"CC(C)c1c(-c2cc(C(=O)N(C)C)c(=O)n(C)c2)[nH]c2ccc(C3CCNCC3)cc12 [Example 63, 5-(3-isopropyl-5-(piperidin-4-yl)-1H-indol-2-yl)-N,N,1-trimethyl-2-oxo-1,2-dihydropyridine-3-carboxamide]",–,–,≥ 50000
